Where two headings read alike, the source gives them in different places.
Tests used:
CYP2C9 = tested on: CYP2C9; design: method as in PMID 35279606; details: previous study; read-out: CYP2C9 inhibition IC50; cited from earlier work
[1] = Metabolite identification in human liver microsomes; format: in vitro ADME; details: 7–16 10 µM, liver microsomes 1 mg/mL, NADPH, 37 °C, 60 min
Experimental: (§1) In accordance with our previous methods, 7–16 (10 µM) was incubated with mouse, rat, dog, monkey, and human liver microsome proteins (1 mg/mL) in 100 mM sodium phosphate buffer (pH 7.4) containing 10 mM magnesium chloride and 2 mM NADPH at 37 °C for 60 min. All samples were prepared in duplicates. The reactions were terminated by adding three times the volume of ice-cold acetonitrile (600 µL) and stored at −20 °C until analysis. Control samples without NADPH and 0-time point samples were included. As a positive control, testosterone (10 µM), which was metabolized to produce the hydroxylation metabolite, was used as a substrate to confirm the activity of the incubation system.
(§2) After pre-treatments, the samples were analyzed by an Acquity UPLC system coupled with a diode array detector (Waters Corporation, Milford, MA, USA) and Q Exactive HRMS (Thermo Electron Corporation, Waltham, MA, USA) (UPLC–UV-Q Exactive HRMS). Samples were separated on an Agilent XDB C18 column (150 × 2.1 mm i.d. 3.5 μm, Agilent Corporation, Santa Clara, CA, USA) at 40 °C by gradient elution with water and acetonitrile containing 0.1% formic acid. The flow rate was 0.40 mL/min. The ultraviolet (UV) detection wavelength was 286 nm. Q Exactive HRMS were operated at positive ion mode (3.5 kV) using a heating electrospray ionization source. Mass calibration was required to be performed before conducting experiments so as to achieve the best mass accuracy and mass calibration should be performed every five days. The metabolites were detected by full MS/dd-MS^2 analysis from m/z 100 to m/z 1000. The resolution of the first-class scan and second-class scan was 70,000 and 17,500, respectively. Thermo Compound Discover software was used to identify expected and unknown metabolites, and we finally proposed the 7–16 metabolic pathways based on the deduced metabolites and relevant drug biotransformation knowledge.

[2] = Excretion and metabolite identification in bile duct cannulated (BDC) rats; format: in vivo, Sprague-Dawley rats
Experimental: In the urine and feces excretion experiment, six rats (3 females and 3 males) were administered a single oral dose of [^14C]7–16 at 3 mg/100 µCi/kg. Urine, feces and cage washing/cleaning solution samples were collected from 0 to 168 h following drug administration at the following time intervals: 0–8, 8–24 h (0–24 h for feces), 24–48, 48–72, 72–96, 96–120, 120–144, and 144–168 h. In the biliary excretion experiment, 8 rats using a bile duct cannula (BDC) (4 females and 4 males) were administered a single oral dose of [^14C]7–16 at 3 mg/100 µCi/kg. Bile, urine, feces, and cage washing solution were collected from before and 0–72 h after oral administration at the following time intervals: 0–4, 4–8 (urine 0–8), 8–24 (feces 0–24), 24–48, and 48–72 h. All samples were collected and refrigerated at −20 °C until determination of the radioactive concentrations by liquid scintillation counter (Perkin Elmer Corporation, Waltham, MA, USA). Urine, feces, and bile samples at each time period were mixed by equal percentages of either volume or weight. After the mixed samples were treated, the radio-profiles and metabolite identification in the bile, urine, and feces samples were carried out by LC-RAM and UPLC-Q Exactive HRMS, and the TRA% of each metabolite in plasma and the percentage of dose (dose%) of each compound in urine, feces, and bile samples were calculated.

[3] = Metabolite identification in dog liver microsomes; format: in vitro ADME; details: 7–16 10 µM, liver microsomes 1 mg/mL, NADPH, 37 °C, 60 min
Experimental: as §1, §2

5-HT2A receptor [4] = molecular target: 5-HT2A receptor; design: method as in PMID 35279606; details: cited from earlier work
5-HT2A receptors = tested on: 5-HT2A receptors; design: method as in PMID 35279606; details: head twitches test in rats; cited from earlier work
[5] = Metabolite identification in rat liver microsomes; format: in vitro ADME; details: 7–16 10 µM, liver microsomes 1 mg/mL, NADPH, 37 °C, 60 min
Experimental: as §1, §2

hERG = tested on: hERG; design: method as in PMID 35279606; details: versus pimavanserin; cited from earlier work
P-gp = molecular target: T1, P-gp (Homo sapiens, UniProt P08183); assay: P-gp inhibitor assay in MDR1-MDCKII cells; format: in vitro ADME; details: substrate Digoxin 10.0 µM, efflux ratio, read-out: Inhibition IC50, P-gp
T1 construct: expressed in transfected cells; host or cells: MDR1-MDCKII (Madin-Darby canine kidney cells)

5-HT2A receptor [6] = molecular target: 5-HT2A receptor; design: method as in PMID 35279606; details: cited from earlier work; remark: listed apart in the source
CYP2D6 = assay: Metabolic phenotype by rhCYP isozymes, CYP2D6; format: in vitro ADME, human; details: 7–16 1 µM
Experimental: (§3) Based on the result of metabolite identification, two metabolites were selected as targets for metabolic phenotyping analysis. Seven CYP isozymes (CYP1A2, CYP2B6, CYP2C8, CYP2C9, CYP2C19, CYP2D6, and CYP3A4) were investigated using the rhCYP isozymes method. In brief, 7–16 (1 µΜ) was incubated with each rhCYP isozyme ([…]) in 100 mM sodium phosphate buffer (pH 7.4) containing 3 mM magnesium chloride. After 10 min of preincubation at 37 °C, the reactions were initiated by adding NADPH (1 mM) and then incubated at 37 °C in a shaking water bath for 0, 5, 15, and 30 min. The specific substrates of each rhCYP isozyme were incubated as the above method to confirm the activity of the incubation system. The samples were prepared in triplicates. The reactions were terminated by adding three times the volume of ice-cold acetonitrile (600 µL) and stored at −20 °C until analysis. After pre-treatment, the samples were determined by the LC–MS/MS (Shimadzu Exion-Triple Quad 4500) method. The relative contribution rate of each isozyme to the metabolism of 7–16 was evaluated in HLMs using the following formula: Contributionx% = Vx × Abundancex (pmol/mg protein)/Σ(Vi × Abundancei). Vx (µL/min/pmol) is the production rate of metabolites for each rhCYP isozyme.

CYP1A2 = assay: Metabolic phenotype by rhCYP isozymes, CYP1A2; format: in vitro ADME, human; details: 7–16 1 µM
Experimental: as §3

T1 sequence (P08183 whole entry): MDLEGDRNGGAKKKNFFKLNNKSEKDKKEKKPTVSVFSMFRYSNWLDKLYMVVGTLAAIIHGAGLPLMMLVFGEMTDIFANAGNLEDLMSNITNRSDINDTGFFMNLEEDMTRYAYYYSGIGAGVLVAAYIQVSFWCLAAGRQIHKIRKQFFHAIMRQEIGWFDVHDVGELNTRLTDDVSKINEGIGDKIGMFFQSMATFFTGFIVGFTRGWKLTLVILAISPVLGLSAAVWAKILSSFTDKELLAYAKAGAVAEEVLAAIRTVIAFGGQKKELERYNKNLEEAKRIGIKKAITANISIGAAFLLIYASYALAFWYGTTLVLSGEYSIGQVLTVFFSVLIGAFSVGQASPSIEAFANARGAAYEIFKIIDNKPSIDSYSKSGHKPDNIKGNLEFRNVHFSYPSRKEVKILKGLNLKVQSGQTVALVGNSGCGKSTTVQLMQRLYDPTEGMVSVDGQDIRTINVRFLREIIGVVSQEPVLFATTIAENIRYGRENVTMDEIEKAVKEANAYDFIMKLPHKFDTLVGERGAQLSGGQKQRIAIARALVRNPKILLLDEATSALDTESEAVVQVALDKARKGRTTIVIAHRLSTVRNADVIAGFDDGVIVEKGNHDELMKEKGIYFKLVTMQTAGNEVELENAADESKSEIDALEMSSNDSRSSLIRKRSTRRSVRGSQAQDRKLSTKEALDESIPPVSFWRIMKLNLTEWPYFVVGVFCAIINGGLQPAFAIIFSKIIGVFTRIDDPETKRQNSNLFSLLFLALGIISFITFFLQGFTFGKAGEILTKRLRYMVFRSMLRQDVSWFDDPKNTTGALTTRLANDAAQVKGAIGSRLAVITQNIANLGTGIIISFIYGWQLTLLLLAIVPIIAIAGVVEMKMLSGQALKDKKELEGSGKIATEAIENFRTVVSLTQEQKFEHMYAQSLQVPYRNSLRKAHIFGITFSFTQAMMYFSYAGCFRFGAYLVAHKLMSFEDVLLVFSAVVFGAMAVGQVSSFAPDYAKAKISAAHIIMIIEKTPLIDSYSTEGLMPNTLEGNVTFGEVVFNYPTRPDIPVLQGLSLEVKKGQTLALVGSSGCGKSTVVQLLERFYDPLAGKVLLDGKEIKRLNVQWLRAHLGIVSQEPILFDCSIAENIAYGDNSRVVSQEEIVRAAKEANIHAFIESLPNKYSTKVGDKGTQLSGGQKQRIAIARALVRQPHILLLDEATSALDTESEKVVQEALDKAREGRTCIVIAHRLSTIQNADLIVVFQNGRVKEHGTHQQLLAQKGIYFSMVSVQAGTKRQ

Compound: CN1CCC(N(Cc2ccc(F)cn2)C(=O)NCc2ccc(OCC(F)(F)F)cc2)CC1 [7–16, 3-(4-(2,2,2-trifluoroethoxy)benzyl)-1-((5-fluoropyridin-2-yl)methyl)-1-(1-methylpiperidin-4-yl) urea]
- IC50 (CYP2C9): > 62900 nM
- Relative Abundance, UV Area% Human [1]: 95.2%
- recovery of radioactivity in bile, percent of dose ([2]; BDC rats, 0–72 h): 18.4%
- recovery of radioactivity in cage rinse/wash, percent of dose ([2]; BDC rats, 0–72 h): 3.42%
- recovery of radioactivity in feces, percent of dose ([2]; BDC rats, 0–72 h): 20.2%
- recovery of radioactivity in urine, percent of dose ([2]; BDC rats, 0–72 h): 56.3%
- total recovery of radioactivity, percent of dose ([2]; BDC rats, 0–72 h, oral 3 mg/100 µCi/kg, mean of both sexes): 98.3%
- recovery of radioactivity within the first 24 h, percent of dose ([2]; BDC rats, first 24 h post-administration): 82.8%
- absorption rate ([2]; calculated from dose excreted in bile and urine of BDC rats, oral): at least 74.7%
- Relative Abundance, UV Area% Dog [3]: 77.2%
- IC50 (5-HT2A receptor [4]; previous study, read-out: 5-HT2A inverse agonist activity IC50): 2.1 nM
- fold higher inverse agonist activity than pimavanserin (5-HT2A receptor [4]; versus pimavanserin): 23 fold
- potency for blocking 5-HT2A receptors relative to pimavanserin (5-HT2A receptors): at least four times more potent than pimavanserin
- Relative Abundance, UV Area% Rat [5]: 86.1%
- fold weaker hERG inhibitory activity than pimavanserin (hERG): 2 fold
- IC50 (P-gp): 30600 nM
- IC50 (5-HT2A receptor [6]; previous study, read-out: 5-HT2A receptor antagonist activity IC50): 0.54 nM
- fold higher 5-HT2A receptor antagonist activity than pimavanserin (5-HT2A receptor [6]; versus pimavanserin): 50 fold
- relative contribution of CYP2D6 to metabolism (CYP2D6): little or no contribution
- relative contribution of CYP1A2 to metabolism (CYP1A2): little or no contribution
